Data from patent US8084016B2, “Measurement of biosynthesis and breakdown rates of biological molecules that are inaccessible or not easily accessible to direct sampling, non-invasively, by label incorporation into metabolic derivatives and catabolitic products” (The Regents of the University of California, priority 2002, dated 2011).

Legend:
muscle myosin = assay: Incorporation of ^2H from ^2H2O into urinary 3-methyl-histidine (muscle myosin biosynthesis); type: in vivo; details: human subjects, intake of ^2H2O for 4-8 weeks
Text: An individual undergoing a physical training program or medical therapeutic regimen intended to increase muscle mass by increasing muscle myosin biosynthesis (e.g., an athlete; an elderly person receiving physical therapy after a stroke; a patient with cachexia related to cancer or AIDS who is receiving nutritional or anabolic agent therapy) is given a labeled precursor that is incorporated into the body's proteins during biosynthesis. […] […] […] Total urinary amino acids are isolated with an SPE column. The amino acids are derivatized for gas chromatographic/mass spectrometric analysis. […] The derivatized amino acids are injected into a gas chromatograph/mass spectrometer (e.g., HP 5973 instrument), using, e.g., a DB-225 column. The mass spectrum of the 3-methyl histidine peak is collected while monitoring mass isotopomers at m/z 267 and 268 (parent and M+1 ions, respectively). Relative abundances of the above mass isotopomers are quantified in samples and compared to unlabeled standards ([…] 267+268]=0.1200 in samples and 0.0960 in standards). The proportion of labeled:unlabeled molecules present in the sample is calculated for 3-methylhistidine using MIDA.

[1] = Body water ^2H2O enrichment during oral ^2H2O intake; type: in vivo, human
[2] = Toxicity observation during maintained body water enrichment with ^2H2O; type: in vivo; details: levels maintained for weeks or months; >100 human subjects; rapid changes in body water enrichment prevented
Text: Relatively high body water enrichments of ^2H2O (e.g., 1-10% of the total body water is labeled) may be achieved using the techniques of the invention. This water enrichment is relatively constant and stable as these levels are maintained for weeks or months in humans and in experimental animals without any evidence of toxicity (FIGS. 3-5). This finding in a large number of human subjects (>100 people) is contrary to previous concerns about vestibular toxicities at high doses of ^2H2O. Applicants have discovered that as long as rapid changes in body water enrichment are prevented (e.g., by initial administration in small, divided doses), high body water enrichments of ^2H2O can be maintained with no toxicities. For example, the low expense of commercially available ^2H2O allows long-term maintenance of enrichments in the 1-5% range at relatively low expense (e.g., calculations reveal a lower cost for 2 months labeling at 2% ^2H2O enrichment, and thus 7-8% enrichment in the alanine precursor pool (FIGS. 6A-B), than for 12 hours labeling of ^2H-leucine at 10% free leucine enrichment, and thus 7-8% enrichment in leucine precursor pool for that period).

stability of ^2H2O enrichment in body water (precursor pool) ([1]; human subjects drank 50-100 ml ^2H2O daily for 10-12 weeks (FIG. 4)) | ^2H2O (%): body water enrichment ([1]; human subjects, intake of ^2H2O for 4-8 weeks) | Compound | k: replacement rate constant of 3-methyl-histidine (muscle myosin) | toxicity at high body water enrichments of ^2H2O [2]
– | – | Cn1cncc1C[C@H](N)C(=O)O [3-methyl-histidine] | 0.037 day⁻¹ | –
stable over a period of weeks | 1.8% | [2H]O[2H] [^2H2O] | – | no toxicities
